From ChEMBL document CHEMBL1122930, “Synthesis and pharmacological characterization of 5-(2-dodecylphenyl)-4,6-dithianonanedioic acid and 5-[2-(8-phenyloctyl)phenyl]-4,6-dithianonanedioic acid: prototypes of a novel class of leukotriene antagonists” (J Med Chem, 1985)
Structures can show the parent of a compound that is named as a salt.

Experiments:
[1] = biological target: T1, Cysteinyl leukotriene receptor 1 (Cavia porcellus, UniProt Q2NNR5); experiment: Binding constant was determined as affinity to displace [3H]LTD4 from Cysteinyl leukotriene D4 receptor on guinea pig lung membrane; format: tissue-based
T1 sequence (Q2NNR5 whole entry): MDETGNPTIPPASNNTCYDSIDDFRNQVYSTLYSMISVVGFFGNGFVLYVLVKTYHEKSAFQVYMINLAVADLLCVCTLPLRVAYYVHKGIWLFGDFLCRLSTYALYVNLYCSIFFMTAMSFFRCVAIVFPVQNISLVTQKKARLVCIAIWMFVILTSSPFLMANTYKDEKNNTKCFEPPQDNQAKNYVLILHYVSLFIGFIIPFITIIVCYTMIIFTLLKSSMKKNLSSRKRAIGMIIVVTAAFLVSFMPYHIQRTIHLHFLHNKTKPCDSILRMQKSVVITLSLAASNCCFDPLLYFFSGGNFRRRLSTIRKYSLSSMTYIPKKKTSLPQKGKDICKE

[2] = biological target: T2, Cysteinyl leukotriene receptor 1 (Cavia porcellus) (UniProt Q2NNR5)
T2 sequence (whole entry): T1 sequence (Q2NNR5 whole entry)

[3] = test system: Cavia porcellus; experiment: Antagonistic effect on LTD4 induced change in air way resistance (RL) in anesthetized guinea pigs, at dose 5 ug/kg, administered intravenously; format: functional; conditions: iv
[4] = test system: Cavia porcellus; experiment: Antagonistic effect on LTD4 induced change in lung compliance (CDYN) in anesthetized guinea pigs, at dose 5 ug/kg, administered intravenously; format: functional; conditions: iv
[5] = biological target: T2, Cysteinyl leukotriene receptor 1 (Cavia porcellus); remark: listed apart in the source
[6] = test system: Cavia porcellus; experiment: Antagonistic effect on LTD4 induced changes in dynamic lung compliance (CDYN) in anesthetized guinea pigs, at dose 5 mg/kg when administered intravenously; format: functional; conditions: route intravenous
[7] = test system: Cavia porcellus; experiment: Antagonistic effect on LTD4 induced change in airway resistance (RL) in anesthetized guinea pigs, at dose 5 mg/kg when administered intravenously; format: functional; conditions: route intravenous
[8] = test system: Cavia porcellus; experiment: Antagonistic effect on LTD4 induced change in lung compliance (CDYN) in anesthetized guinea pig, at dose 5 ug/kg, administered intravenously; format: functional; conditions: iv
[9] = biological target: T2, Cysteinyl leukotriene receptor 1 (Cavia porcellus); experiment: Dissociation constant towards Cysteinyl leukotriene D4 receptor of guinea pig

Ki [1]	-Log K B [2]	-Log K B [5]	-Log K B [9]	SMILES	inhibition in vivo at 0.005 mg/kg [3]	inhibition in vivo at 0.005 mg/kg [4]	inhibition in vivo at 5 mg/kg [6]	inhibition in vivo at 5 mg/kg [7]	inhibition in vivo at 0.005 mg/kg [8]
245 nM	6.7	–	–	O=C(O)CCSC(SCCC(=O)O)c1ccccc1CCCCCCCCc1ccccc1	100%	95%	–	–	–
–	–	6.8	–	CCCc1c(OCC(O)COc2ccc3c(=O)cc(C(=O)O)oc3c2CCC)ccc(C(C)=O)c1O (stereo unspecified) [FPL-55712 SODIUM SALT]	–	–	97%	97%	–
445 nM	–	–	6	CCCCCCCCCCCCc1ccccc1C(SCCC(=O)O)SCCC(=O)O	97%	–	–	–	83%
